Measurements as given in patent publication US6548486B1, “Fatty acid esters of nucleoside analogs” (Norsk Hydro a.s., priority 1991, dated 2003).

Experiments:
[1] = tested on: HSV 2 (3rd passage of a clinical isolate); experiment: Plaque method: tissue culture of HSV 2 in vero cells; type: cell-based; conditions: Ara T esters at 3.9 μmol/l, FIG. 2
[2] = tested on: HSV 2 strain relatively resistent to ACV; experiment: Plaque method with a HSV 2 strain relatively resistent to ACV; type: cell-based; conditions: 0.9 μmol/l versus 2.2 μmol/l, FIG. 1B
Description: A virus preparation of HSV 2 (3rd passage of a clinical isolate) is diluted to 3×10^3 pfu/well, and thereafter inocculated on cells and incubated for 1 hour in a tissue culture of vero cells. At that time the virus is incorporated into the cells.
These cells are then cultivated for 24 hours with an anti-viral agent. Thereafter they are placed under freezing conditions, which lead to the disruption of the cells and free virus appear under the melting process. Dilutions of either 1/100 or 1/10000 are prepared and added to fresh tissue cultures. Incubation for 1 hour leads to incorporation of virus in the cells. Carboxymethylcellulose (CMC) is added in order to prohibit the migration of virus between the cells through the medium. Spread of virus by cell contact is still effective in causing the formation of plaques.
One plaque will represent one infectious virus. Thus the counting of plaques gives a precise quantitation of the number of infectious virus.
In a test done with a HSV 2 strain relatively resistent to ACV, the test compounds, ACV, ACV-oleate and ACV-elaidate, were added at 0.9 μmol/l or 2.2 μmol/l.

Herpes virus 2 = experiment: In vivo reduced mortality, Herpes Simplex Virus 2 infected mice; design: species or system female NMRI mice
Text: The in vivo experiments were done using 3-4 weeks old female NMRI mice. This strain of mice is sensitive to the human herpes virus, up to an age of about 6 weeks, where after they become relatively resistant. Mice below this critical age were used, having a weight of 13-17 grams.
Herpes virus 2 which were third passage isolates were inocculated on the left ear lobe by a standarized procedure. […] Thus HSV 2 is especially suitable as a system for evaluation of the therapeutic efficiency by counting the number of cases of encephalitis.
The animals received approximately 12 mg/kg body weight/day through the drinking water. The compounds were added to the drinking water formulated as micelles with deoxycholate.
Both the control group and the groups receiving the test compounds included 10 animals in each group. The test compounds were ACV-elaidate and ACV in comparison with the control. Treatment was started on day 3 from inocculation. At that time the infection is well established in the central nerve system.

CCCCCCCC/C=C\CCCCCCCC(=O)OC[C@H]1O[C@@H](n2cc(C)c(=O)[nH]c2=O)[C@@H](O)[C@@H]1O (relative stereo) [Ara T oleate, 5′-O-(cis-9″-Octadecenoyl)-1-β-D-Arabinofuranosyl-Thymine]
inhibition [1]: 100%

Nc1nc2c(ncn2COCCO)c(=O)[nH]1 [ACV, 9-(2-Hydroxyethoxymethyl)-Guanine, reference compound]
inhibitory effect at increasing concentration [2]: remains at the same level

CCCCCCCC/C=C/CCCCCCCC(=O)OCCOCn1cnc2c(=O)[nH]c(N)nc21 [ACV-elaidate, 9-(2′-(trans-9″-Octadecenoyloxy)ethoxymethyl)-Guanine]
survival rate (Herpes virus 2; approximately 12 mg/kg body weight/day through the drinking water, treatment started day 3 from inocculation, FIG. 3): 40% | signs of encephalitis (Herpes virus 2; surviving animals after 21 days): no signs of encephalitis | inhibitory effect at increasing concentration [2]: strongly enhanced at the higher concentration

CCCCCCCC/C=C\CCCCCCCC(=O)OCCOCn1cnc2c(=O)[nH]c(N)nc21 [ACV-oleate, 9-(2′-(cis-9′-Octadecenoylcxy)ethoxymethyl)-Guanine]
inhibitory effect at increasing concentration [2]: strongly enhanced at the higher concentration
